# Reference: ChEMBL document CHEMBL6092165, “Discovery of sp3-rich diazatricycloundecanes as lysosomotropic autophagy inhibitors” (Eur J Med Chem, 2024)
# The source made the active and inactive calls. The rule behind the calls is not given here.
# Columns and labels:
# HeLa [1] = experiment: Antiproliferative activity against human HeLa cells assessed as inhibition of cell growth incubated for 72 hrs by MTT assay; assay type: functional, cell-based
# [2] = Induction of autophagic flux in human HeLa cells overexpressing EGFP-LC3 assessed as fold increase in GFP-tagged LC3-II protein expression at 10 uM incubated for 24 hrs by Western blotting analysis (reference value: 1); assay type: functional
# [3] = Induction of autophagic flux in human HeLa cells overexpressing EGFP-LC3 assessed as fold increase in GFP-tagged LC3-II protein expression at 3 uM incubated for 24 hrs by Western blotting analysis (reference value: 1); assay type: functional
# HeLa [4] = experiment: Induction of autophagy in human HeLa cells overexpressing EGFP-LC3 assessed as increase in LC3-II puncta formation at 10 uM incubated for 24 hrs in presence of chloroquine by Hoechst staining based immunofluorescence analysis; assay type: functional, cell-based
# HeLa [5] = experiment: Induction of autophagy in human HeLa cells overexpressing EGFP-LC3 assessed as increase in LC3-II puncta formation at 10 uM incubated for 24 hrs in presence of rapamycin by Hoechst staining based immunofluorescence analysis; assay type: functional, cell-based
# Lysosomal membrane [6] = experiment: Induction of lysosomal membrane permeabilization in human HeLa cells assessed as increase fluorescence intensity at 10 uM incubated for 24 hrs in presence of chloroquine by LysoTracker Red DND-99 dye based confocal laser microscopic analysis; assay type: subcellular
# Lysosomal membrane [7] = experiment: Induction of lysosomal membrane permeabilization in human HeLa cells assessed as increase fluorescence intensity at 10 uM incubated for 24 hrs in presence of bafilomycin A1 by LysoTracker Red DND-99 dye based confocal laser microscopic analysis; assay type: subcellular
# Lysosomal membrane [8] = experiment: Disruption of lysosomal membrane in human HT-1080 cells assessed as downregulation of cathepsin B expression at 20 uM by Western blotting analysis; assay type: subcellular
# Lysosomal membrane [9] = experiment: Disruption of lysosomal membrane in human HT-1080 cells assessed as downregulation of cathepsin B expression incubated for 24 hrs by Western blotting analysis; assay type: subcellular
# HT-1080 [10] = experiment: Induction of autophagic flux in human HT-1080 cells assessed as increase in LC3-II protein expression at 10 uM incubated for 24 hrs by Western blotting analysis; assay type: functional, cell-based
# HT-1080 [11] = experiment: Antiproliferative activity against human HT-1080 cells assessed as inhibition of cell growth incubated for 72 hrs by MTT assay; assay type: functional, cell-based
# [12] = Induction of autophagic flux in human HeLa cells overexpressing EGFP-LC3 assessed as fold increase in GFP-tagged LC3-II protein expression at 1 uM incubated for 24 hrs by Western blotting analysis (reference value: 1); assay type: functional
# Lysosomal membrane [13] = experiment: Disruption of lysosomal membrane in human HT-1080 cells assessed as downregulation of cathepsin B expression at 20 uM incubated for 12 hrs by Western blotting analysis; assay type: subcellular
# HeLa [14] = experiment: Induction of autophagic flux in human HeLa cells overexpressing EGFP-LC3 assessed as increase in GFP-tagged LC3-II protein expression at 10 uM incubated for 24 hrs by Western blotting analysis; assay type: functional, cell-based
# Lysosomal membrane [15] = experiment: Disruption of lysosomal membrane in human HT-1080 cells assessed as downregulation of cathepsin B expression at 5 uM incubated for 12 hrs by Western blotting analysis; assay type: subcellular
Structure (SMILES),IC50 (HeLa [1]) [µM],fold change (FC) [2],also measured
O=C(C[C@H]1CN2C3CC(OC(=O)Cc4ccccc4)C1C2CN(Cc1ccccc1)C3)NCc1ccccc1 (some centres not stated),14.8,2,
CCCCCCNC(=O)C[C@H]1CN2C3CC(OC(=O)C(C)C)C1C2CN(Cc1ccccc1)C3 (some centres not stated),10.1,2.4,fold change (FC) [3]: 2.6; Activity (HeLa [4]): Not active; Compared To Compound Alone Or Chloroquine Alone Treatment; Mechanism Of Action Similar To Chloroquine; Activity (HeLa [5]): Active; Compared To Compound Alone Or Rapamycin Alone Treatment; Activity (Lysosomal membrane [6]): Active; Compound Observed To Enlarge Lysosome And Increase Lysosomal Ph Similar To Chloroquine; Activity (Lysosomal membrane [7]): inactive; Activity (Lysosomal membrane [8]): Time-dependent-effect; Activity (Lysosomal membrane [9]): Dose-dependent-effect; Activity (HT-1080 [10]): Active; Activity (HT-1080 [11]): Active; fold change (FC) [12]: 1.3
CCN(CC)CCCC(C)Nc1ccnc2cc(Cl)ccc12 (configuration not stated) [CHLOROQUINE],43.1,2,Activity (Lysosomal membrane [13]): Active
CC(C)CN1CC2CC(OC(=O)Cc3ccccc3)C3C(C1)N2C[C@@H]3CC(=O)NCc1ccccc1 (some centres not stated),94.2,1.8,
O=C(C[C@H]1CN2C3CC(OC(=O)C4CCCCC4)C1C2CN(Cc1ccccc1)C3)NCc1ccccc1 (some centres not stated),5.2,3.7,
CC(C)CC(=O)OC1CC2CN(CC(C)C)CC3C1[C@@H](CC(=O)NCc1ccccc1)CN23 (some centres not stated),34.2,2.5,
CC(C)CNC(=O)C[C@H]1CN2C3CC(OC(=O)Cc4ccccc4)C1C2CN(CC(C)C)C3 (some centres not stated),> 100,1.3,
O=C(C[C@H]1CN2C3CC(OC(=O)C4CC4)C1C2CN(Cc1ccccc1)C3)NCc1ccccc1 (some centres not stated),18,5.7,
CNC(=O)C[C@H]1CN2C3CC(OC(=O)C(C)C)C1C2CN(Cc1ccccc1)C3 (some centres not stated),> 100,1.9,
CCCCCCNC(=O)/C=C1/CN2C3CNCC2C1C(OC(=O)C(C)C)C3 (configuration not stated),> 100,1.3,
CC(C)CC(=O)OC1CC2CN(Cc3ccccc3)CC3C1[C@@H](CC(=O)NCc1ccccc1)CN23 (some centres not stated),10,3,
CC(C)NC(=O)C[C@H]1CN2C3CC(OC(=O)C(C)C)C1C2CN(Cc1ccccc1)C3 (some centres not stated),> 100,1.8,
CC(C)CNC(=O)C[C@H]1CN2C3CC(OC(=O)CC(C)C)C1C2CN(CC(C)C)C3 (some centres not stated),> 100,1.2,
CC(C)C(=O)OC1CC2CN(Cc3ccccc3)CC3C1[C@@H](CC(=O)NCC1CCCCC1)CN23 (some centres not stated),15.5,2.4,fold change (FC) [3]: 2.1; fold change (FC) [12]: 2
CC(=O)OC1CC2CN(Cc3ccccc3)CC3C1[C@@H](CC(=O)NCc1ccccc1)CN23 (some centres not stated),78.4,3.5,
CC(C)CCC(=O)OC1CC2CN(Cc3ccccc3)CC3C1[C@@H](CC(=O)NCc1ccccc1)CN23 (some centres not stated),6.2,3.7,
C#CCCCC(=O)OC1CC2CN(Cc3ccccc3)CC3C1[C@@H](CC(=O)NCc1ccccc1)CN23 (some centres not stated),15.7,4.3,

Structure (SMILES),IC50 (HeLa [1]) [µM],fold change (FC) [2],also measured
CC(C)C(=O)OC1CC2CN(CC3CCCCC3)CC3C1[C@@H](CC(=O)NCC1CCCCC1)CN23 (some centres not stated),6,2.9,fold change (FC) [3]: 3.7; fold change (FC) [12]: 1.4
O=C(C[C@H]1CN2C3CC(O)C1C2CN(Cc1ccccc1)C3)NCc1ccccc1 (some centres not stated),> 100,,Activity (HeLa [14]): inactive
CC(C)(C)C(=O)OC1CC2CN(Cc3ccccc3)CC3C1[C@@H](CC(=O)NCc1ccccc1)CN23 (some centres not stated),5.6,3.8,
O=C(C[C@H]1CN2C3CC(=O)C1C2CN(Cc1ccccc1)C3)NCc1ccccc1 (some centres not stated),> 100,,Activity (HeLa [14]): inactive
CCCCCCCCCCCCCCCC(=O)OC1CC2CN(Cc3ccccc3)CC3C1[C@@H](CC(=O)NCc1ccccc1)CN23 (some centres not stated),5.5,1.1,
CCOC(=O)C[C@H]1CN2C3CC(=O)C1C2CN(Cc1ccccc1)C3 (some centres not stated),> 100,,Activity (HeLa [14]): inactive
CCCCCCNC(=O)/C=C1/CN2C3CC(OC(=O)C(C)C)C1C2CN(Cc1ccccc1)C3 (configuration not stated),12.5,3,
CC(C)C(=O)OC1CC2CN(Cc3ccccc3)CC3C1[C@@H](CC(=O)NCc1ccccc1)CN23 (some centres not stated),19.3,1.9,
CCCCCCNC(=O)/C=C1/CN2C3CC(OC(=O)C(C)C)C1C2CN(C)C3 (configuration not stated),> 100,2.1,
CCCCC(=O)OC1CC2CN(Cc3ccccc3)CC3C1[C@@H](CC(=O)NCc1ccccc1)CN23 (some centres not stated),6.7,5.4,
CCOC(=O)C[C@H]1CN2C3CNCC2C1C(=O)C3 (some centres not stated),> 100,,Activity (HeLa [14]): inactive
CO/C1=C\C(C)=C\[C@@H](C)[C@@H](O)[C@@H](C)C/C(C)=C/C=C/[C@H](OC)[C@@H]([C@@H](C)[C@@H](O)[C@H](C)[C@@]2(O)C[C@@H](O)[C@H](C)[C@@H](C(C)C)O2)OC1=O,,,Activity (Lysosomal membrane [15]): Active
CCCCCCNC(=O)/C=C1/CN2C3CC(OC(=O)C(C)C)C1C2CN(C(=O)OCc1ccccc1)C3 (configuration not stated),23.1,1.3,
CC(C)CNC(=O)C[C@H]1CN2C3CC(OC(=O)CC(C)C)C1C2CN(Cc1ccccc1)C3 (some centres not stated),15.7,1.7,
CC(C)CNC(=O)C[C@H]1CN2C3CC(OC(=O)Cc4ccccc4)C1C2CN(Cc1ccccc1)C3 (some centres not stated),47.9,1.6,
CCCCCCNC(=O)/C=C1/CN2C3CC(OC(=O)C(C)C)C1C2CN(C(=O)c1ccccc1)C3 (configuration not stated),> 100,1.3,
O=C(C[C@H]1CN2C3CC(OC(=O)C4CCCCCC4)C1C2CN(Cc1ccccc1)C3)NCc1ccccc1 (some centres not stated),5.1,2.2,
